Test results as given in the supplement of paper PMC11451515.

Columns and labels:
[1] = tested on: SEM cells; assay: cell viability relative to DMSO control; higher = less cytotoxic; conditions: HPLM + 10% dialyzed FBS, 48 h
Outline: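 Library compounds in DMSO were pin-dosed in an 11-point threefold series (47 μM to 0.79 nM) onto leukemia cells in 1536-well plates (5 μl). Plates held 500 cells/well of NOMO1 or SEM or 1000 cells/well of P12-Ichikawa, each adapted for at least four passages in each medium. Luminescence was read with CellTiter-Glo One after 48 h at 37°C. Viability means the per-plate percentage relative to DMSO wells, using cell-free wells as background.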

[2] = tested on: SEM cells; assay: AUC of viability dose-response curve (% viability x log10 dose units); higher = less sensitive; conditions: 48 h
Outline: (§1)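 In 1536-well plates, leukemia cells adapted to each medium (500 or 1000 cells/well) were exposed for 48 h at 37°C to library compounds in DMSO across 11 threefold doses, 47 μM down to 0.79 nM. Viability was read by CellTiter-Glo One luminescence and normalised per plate to DMSO and cell-free wells. A four-parameter log-logistic fit over log10 doses was integrated by trapezoidal rule. This yielded the area under the curve, with over-full-viability curves scaled and quality-control failures dropped.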

[3] = tested on: P12-Ichikawa; assay: as above; conditions: 48 h
Outline: as §1

[4] = tested on: NOMO1; assay: as above; conditions: 48 h
Outline: as §1

[5] = RPMI 5 mM glucose + 10% dialyzed FBS

| Structure (SMILES) | cell viability ([1]; 0.000781 µM) | cell viability ([1]; 0.00234 µM) | cell viability ([1]; 0.00702 µM) | cell viability ([1]; 0.0211 µM) | cell viability ([1]; 0.0632 µM) | cell viability ([1]; 0.19 µM) | cell viability ([1]; 0.569 µM) | cell viability ([1]; 1.71 µM) | cell viability ([1]; 5.12 µM) | cell viability ([1]; 15.4 µM) | cell viability ([1]; 46.1 µM) | AUC of viability dose-response curve ([2]; HPLM + 10% dialyzed FBS) | AUC of viability dose-response curve ([2]; RPMI 5 mM glucose + 10% FBS) | AUC of viability dose-response curve [2, 5] | AUC of viability dose-response curve ([3]; HPLM + 10% dialyzed FBS) | AUC of viability dose-response curve ([3]; RPMI 5 mM glucose + 10% FBS) | AUC of viability dose-response curve [3, 5] | AUC of viability dose-response curve ([4]; HPLM + 10% dialyzed FBS) | AUC of viability dose-response curve ([4]; RPMI 5 mM glucose + 10% FBS) | AUC of viability dose-response curve [4, 5] |
| --- | --- | --- | --- | --- | --- | --- | --- | --- | --- | --- | --- | --- | --- | --- | --- | --- | --- | --- | --- | --- |
| CCN1CCN(Cc2ccc(-c3cc4c(N[C@H](C)c5ccccc5)ncnc4[nH]3)cc2)CC1 | 130% | 124% | 125% | 132% | 116% | 116% | 109% | 98.5% | 74.7% | 51.1% | 8.14% | 384 | 375 | 388 | 448 | 463 | 461 | 439 | 460 | 457 |
| C[C@@H](Oc1cc(-n2cnc3ccc(CN4CCN(C)CC4)cc32)sc1C(N)=O)c1ccccc1C(F)(F)F | – | – | – | – | – | – | – | – | – | – | – | 233 | 214 | 234 | 208 | 202 | 214 | 280 | 246 | 255 |
| CN[C@@H]1CN(C[C@H]1OC)C2=NC3=C(C=C2)C(=O)C(=C\N3C4=NC=CS4)/C(O)=O | – | – | – | – | – | – | – | – | – | – | – | 396 | 347 | 363 | 426 | 386 | 389 | 454 | 455 | 451 |
| CN1CCN(c2cccc(Nc3nc4c(-c5ccc([S+](C)(=O)[O-])cc5)cccn4n3)c2)CC1 | – | – | – | – | – | – | – | – | – | – | – | 379 | 375 | 372 | 453 | 427 | 435 | 438 | 449 | 450 |
